Legend:
[1] = tested on: GSK3β phosphorylation at serine 9; assay: Immunoblot of GSK3β phosphorylation at serine 9 in HUVECs; format: cell-based, human; conditions: for serum-induced phosphorylation of GSK3β: serum-starved HUVECs, 1 hour pretreatment with agent, 10% FBS 1 hour
Protocol: Cell culture and adenoviral vectors. Human umbilical vein ECs (HUVECs) were isolated as previously described (29) and cultured in EGM media (Clonetics, Walkersville, Md.). Four to six passage cells were used in this study. To examine the regulation of GSK3β phosphorylation, HUVECs were serum-starved for 15 hours, treated with the indicated agents for 1 hour, and stimulated with 10% fetal bovine serum.
Immunoblot analysis. HUVECs were washed in phosphate-buffered saline and harvested by scraping in 50 mM Tris-HCl (pH 7.2), 250 mM NaCl, 1% NP40, 0.05% SDS, 2 mM EDTA, 0.5% deoxycholic acid, 10 mM 13-glycerophosphate, 1 mM vanadate, 1 mM phenyl methyl sulfonyl fluoride (PMSF). One mini tablet of protease inhibitor cocktail (Roche, Summerville, N.J.) per 10 ml of lysis buffer, vanadate, and PMSF were added just prior to use. Protein concentration was determined with protein assay kit (Pierce, Rockford, Ill.). Protein (20 μg) was separated on SDS-polyacrylamide electrophoresis gel and transferred to a polyvinylidene difluoride membrane (Millipore, Bedford, Mass.). The membrane was blocked with T-PBS (1×PBS, 0.3% Tween-20) containing 3% dry milk and incubated with primary antibody overnight at 4° C. After three washes with T-PBS, the membrane was reblocked and incubated with secondary antibody for 1 hour at room temperature. ECL or ECL-PLUS (Amersham, Piscataway, N.J.) was used for detection. To reprobe the membrane, it was treated with Restore Western Blot stripping buffer (Pierce, Rockford, Ill.). The primary antibodies used were anti-phospho GSK-3β (Ser9) antibody (1:750 dilution, Cell Signaling Technology, Beverly, Mass.), anti-phospho Akt (Ser473) antibody (1:250 dilution, Cell Signaling Technology, Beverly, Mass.), anti-total GSK-3β antibody (1:1000 dilution, Santa Cruz, Santa Cruz, Calif.), and anti-a tubulin antibody (1:4000 dilution, Oncogene, Boston, Mass.).

[2] = tested on: Akt phosphorylation; assay: Immunoblot of Akt phosphorylation in HUVECs; format: cell-based, human; conditions: for Akt phosphorylation: HUVECs, single agent; for level of Akt phosphorylation: combined administration of PD98059 and SB203480, presence or absence of PI3K inhibition
Protocol: To examine the regulation of GSK3β phosphorylation, HUVECs were serum-starved for 15 hours, treated with the indicated agents for 1 hour, and stimulated with 10% fetal bovine serum.
Immunoblot analysis. HUVECs were washed in phosphate-buffered saline and harvested by scraping in 50 mM Tris-HCl (pH 7.2), 250 mM NaCl, 1% NP40, 0.05% SDS, 2 mM EDTA, 0.5% deoxycholic acid, 10 mM 13-glycerophosphate, 1 mM vanadate, 1 mM phenyl methyl sulfonyl fluoride (PMSF). One mini tablet of protease inhibitor cocktail (Roche, Summerville, N.J.) per 10 ml of lysis buffer, vanadate, and PMSF were added just prior to use. Protein concentration was determined with protein assay kit (Pierce, Rockford, Ill.). Protein (20 μg) was separated on SDS-polyacrylamide electrophoresis gel and transferred to a polyvinylidene difluoride membrane (Millipore, Bedford, Mass.). The membrane was blocked with T-PBS (1×PBS, 0.3% Tween-20) containing 3% dry milk and incubated with primary antibody overnight at 4° C. After three washes with T-PBS, the membrane was reblocked and incubated with secondary antibody for 1 hour at room temperature. ECL or ECL-PLUS (Amersham, Piscataway, N.J.) was used for detection. To reprobe the membrane, it was treated with Restore Western Blot stripping buffer (Pierce, Rockford, Ill.). The primary antibodies used were anti-phospho GSK-3β (Ser9) antibody (1:750 dilution, Cell Signaling Technology, Beverly, Mass.), anti-phospho Akt (Ser473) antibody (1:250 dilution, Cell Signaling Technology, Beverly, Mass.), anti-total GSK-3β antibody (1:1000 dilution, Santa Cruz, Santa Cruz, Calif.), and anti-a tubulin antibody (1:4000 dilution, Oncogene, Boston, Mass.). The secondary antibodies were anti-rabbit IgG/HRP conjugate or anti-mouse IgG/HRP conjugate (1:2500 dilution, Promega, San Luis Obispo, Calif.).

Compound	induction of GSK3β phosphorylation by 8-bromo cAMP or forskolin ([1]; pretreatment with H89, serum-deprived HUVECs)	serum-induced phosphorylation of GSK3β [1]	Akt phosphorylation [2]	level of Akt phosphorylation [2]
O=S(=O)(NCCNC/C=C/c1ccc(Br)cc1)c1cccc2cnccc12 [H89]	blocked	inhibited	promoted	
COc1cccc(-c2cc(=O)c3ccccc3o2)c1N [PD98059]		partially inhibited	not	detectably elevated
C[S+]([O-])c1ccc(-c2nc(-c3ccncc3)c(-c3ccc(F)cc3)[nH]2)cc1 (stereo not drawn) [SB203480]		partially inhibited	not	detectably elevated
